≈ marks a conversion by molar mass, not a printed value.
Assays:
Escherichia coli [1] = assay: Antibacterial activity against Escherichia coli K-12 W3110 by microdilution method; type: functional; conditions: K-12 substr. W3110
Escherichia coli [2] = assay: Ratio of compound MIC to ampicillin MIC for Escherichia coli K-12 W3110; type: functional, K-12 substr. W3110

`Cc1cn([C@H]2CN(P(=O)(OC[C@@H]3CN(P(=O)(OC[C@@H]4CN(P(=O)(OC[C@@H]5CN(P(=O)(OC[C@@H]6CN(P(=O)(OC[C@@H]7CN(P(=O)(OC[C@@H]8CN(P(=O)(OC[C@@H]9CN(P(=O)(OC[C@@H]%10CNC[C@H](n%11cnc%12c(=O)[nH]c(N)nc%12%11)O%10)N(C)C)C[C@H](n%10cc(C)c(=O)[nH]c%10=O)O9)N(C)C)C[C@H](n9cnc%10c(=O)[nH]c(N)nc%109)O8)N(C)C)C[C@H](n8cnc9c(N)ncnc98)O7)N(C)C)C[C@H](n7cc(C)c(=O)[nH]c7=O)O6)N(C)C)C[C@H](n6cnc7c(N)ncnc76)O5)N(C)C)C[C@H](n5cnc6c(=O)[nH]c(N)nc65)O4)N(C)C)C[C@H](n4ccc(N)nc4=O)O3)N(C)C)C[C@@H](COP(=O)(N(C)C)N3C[C@@H](COP(=O)(N(C)C)N4C[C@@H](COP(=O)(N(C)C)N5CCN(C(=O)CCNC(=O)CCCCCNC(=O)[C@H](CCCNC(=N)N)NC(=O)CCNC(=O)CCNC(=O)[C@H](CCCNC(=N)N)NC(=O)CCNC(=O)CCNC(=O)[C@H](CCCNC(=N)N)NC(=O)CCNC(=O)CCNC(=O)[C@@H](N)CCCNC(=N)N)CC5)O[C@@H](n5ccc(N)nc5=O)C4)O[C@@H](n4cc(C)c(=O)[nH]c4=O)C3)O2)c(=O)[nH]c1=O` (some centres undefined) was tested, and the MIC (Escherichia coli [1]) was over 80 µM.
Molecule `Cc1cn([C@H]2CN(P(=O)(OC[C@@H]3CN(P(=O)(OC[C@@H]4CN(P(=O)(OC[C@@H]5CN(P(=O)(OC[C@@H]6CN(P(=O)(OC[C@@H]7CN(P(=O)(OC[C@@H]8CN(P(=O)(OC[C@@H]9CN(P(=O)(OC[C@@H]%10CNC[C@H](n%11cnc%12c(=O)[nH]c(N)nc%12%11)O%10)N(C)C)C[C@H](n%10cc(C)c(=O)[nH]c%10=O)O9)N(C)C)C[C@H](n9cnc%10c(=O)[nH]c(N)nc%109)O8)N(C)C)C[C@H](n8cnc9c(N)ncnc98)O7)N(C)C)C[C@H](n7cc(C)c(=O)[nH]c7=O)O6)N(C)C)C[C@H](n6cnc7c(N)ncnc76)O5)N(C)C)C[C@H](n5cnc6c(=O)[nH]c(N)nc65)O4)N(C)C)C[C@H](n4ccc(N)nc4=O)O3)N(C)C)C[C@@H](COP(=O)(N(C)C)N3C[C@@H](COP(=O)(N(C)C)N4C[C@@H](COP(=O)(N(C)C)N5CCN(C(=O)CCNC(=O)CCCCCNC(=O)[C@H](Cc6ccccc6)NC(=O)[C@H](Cc6ccccc6)NC(=O)[C@H](CCCNC(=N)N)NC(=O)[C@H](Cc6ccccc6)NC(=O)[C@H](Cc6ccccc6)NC(=O)[C@@H](N)CCCNC(=N)N)CC5)O[C@@H](n5ccc(N)nc5=O)C4)O[C@@H](n4cc(C)c(=O)[nH]c4=O)C3)O2)c(=O)[nH]c1=O` (some centres undefined) has an MIC (Escherichia coli [1]) of 20 µM (≈ 97.4 µg/mL).
`Cc1cn([C@H]2CN(P(=O)(OC[C@@H]3CN(P(=O)(OC[C@@H]4CN(P(=O)(OC[C@@H]5CN(P(=O)(OC[C@@H]6CN(P(=O)(OC[C@@H]7CN(P(=O)(OC[C@@H]8CN(P(=O)(OC[C@@H]9CN(P(=O)(OC[C@@H]%10CNC[C@H](n%11cnc%12c(=O)[nH]c(N)nc%12%11)O%10)N(C)C)C[C@H](n%10cc(C)c(=O)[nH]c%10=O)O9)N(C)C)C[C@H](n9cnc%10c(=O)[nH]c(N)nc%109)O8)N(C)C)C[C@H](n8cnc9c(N)ncnc98)O7)N(C)C)C[C@H](n7cc(C)c(=O)[nH]c7=O)O6)N(C)C)C[C@H](n6cnc7c(N)ncnc76)O5)N(C)C)C[C@H](n5cnc6c(=O)[nH]c(N)nc65)O4)N(C)C)C[C@H](n4ccc(N)nc4=O)O3)N(C)C)C[C@@H](COP(=O)(N(C)C)N3C[C@@H](COP(=O)(N(C)C)N4C[C@@H](COP(=O)(N(C)C)N5CCN(C(=O)CCNC(=O)CCCCCNC(=O)[C@H](Cc6ccccc6)NC(=O)[C@H](Cc6ccccc6)NC(=O)[C@H](CCCNC(=N)N)NC(=O)[C@H](Cc6ccccc6)NC(=O)[C@H](Cc6ccccc6)NC(=O)[C@H](CCCNC(=N)N)NC(=O)[C@H](Cc6ccccc6)NC(=O)[C@H](Cc6ccccc6)NC(=O)[C@@H](N)CCCNC(=N)N)CC5)O[C@@H](n5ccc(N)nc5=O)C4)O[C@@H](n4cc(C)c(=O)[nH]c4=O)C3)O2)c(=O)[nH]c1=O` (some centres undefined) showed a Ratio (Escherichia coli [2]) of 2.5 and an MIC (Escherichia coli [1]) of 2.5 µM (≈ 13.3 µg/mL).
`Cc1cn([C@H]2CN(P(=O)(OC[C@@H]3CN(P(=O)(OC[C@@H]4CN(P(=O)(OC[C@@H]5CN(P(=O)(OC[C@@H]6CN(P(=O)(OC[C@@H]7CN(P(=O)(OC[C@@H]8CN(P(=O)(OC[C@@H]9CN(P(=O)(OC[C@@H]%10CNC[C@H](n%11cnc%12c(=O)[nH]c(N)nc%12%11)O%10)N(C)C)C[C@H](n%10cc(C)c(=O)[nH]c%10=O)O9)N(C)C)C[C@H](n9cnc%10c(=O)[nH]c(N)nc%109)O8)N(C)C)C[C@H](n8cnc9c(N)ncnc98)O7)N(C)C)C[C@H](n7cc(C)c(=O)[nH]c7=O)O6)N(C)C)C[C@H](n6cnc7c(N)ncnc76)O5)N(C)C)C[C@H](n5cnc6c(=O)[nH]c(N)nc65)O4)N(C)C)C[C@H](n4ccc(N)nc4=O)O3)N(C)C)C[C@@H](COP(=O)(N(C)C)N3C[C@@H](COP(=O)(N(C)C)N4C[C@@H](COP(=O)(N(C)C)N5CCN(C(=O)CCNC(=O)CCCCCNC(=O)[C@H](CCCNC(=N)N)NC(=O)[C@@H](NC(=O)[C@@H](NC(=O)[C@H](CCCNC(=N)N)NC(=O)[C@@H](NC(=O)[C@@H](NC(=O)[C@H](CCCNC(=N)N)NC(=O)[C@@H](NC(=O)[C@@H](NC(=O)[C@@H](N)CCCNC(=N)N)C(C)C)C(C)C)C(C)C)C(C)C)C(C)C)C(C)C)CC5)O[C@@H](n5ccc(N)nc5=O)C4)O[C@@H](n4cc(C)c(=O)[nH]c4=O)C3)O2)c(=O)[nH]c1=O` (some centres undefined) was tested, and the MIC (Escherichia coli [1]) was over 80 µM.
In the case of `Cc1cn([C@H]2CN(P(=O)(OC[C@@H]3CN(P(=O)(OC[C@@H]4CN(P(=O)(OC[C@@H]5CN(P(=O)(OC[C@@H]6CN(P(=O)(OC[C@@H]7CN(P(=O)(OC[C@@H]8CN(P(=O)(OC[C@@H]9CN(P(=O)(OC[C@@H]%10CNC[C@H](n%11cnc%12c(=O)[nH]c(N)nc%12%11)O%10)N(C)C)C[C@H](n%10cc(C)c(=O)[nH]c%10=O)O9)N(C)C)C[C@H](n9cnc%10c(=O)[nH]c(N)nc%109)O8)N(C)C)C[C@H](n8cnc9c(N)ncnc98)O7)N(C)C)C[C@H](n7cc(C)c(=O)[nH]c7=O)O6)N(C)C)C[C@H](n6cnc7c(N)ncnc76)O5)N(C)C)C[C@H](n5cnc6c(=O)[nH]c(N)nc65)O4)N(C)C)C[C@H](n4ccc(N)nc4=O)O3)N(C)C)C[C@@H](COP(=O)(N(C)C)N3C[C@@H](COP(=O)(N(C)C)N4C[C@@H](COP(=O)(N(C)C)N5CCN(C(=O)CCNC(=O)CCCCCNC(=O)[C@@H](N)CCCNC(=O)CCCCCNC(=O)[C@@H](N)CCCNC(=O)[C@@H](N)CCCNC(=O)CCCCCNC(=O)[C@@H](N)CCCNC(=O)[C@@H](N)CCCNC(=O)CCCCCNC(=O)[C@@H](N)CCCNC(=O)[C@@H](N)CCCNC(=O)CCCCCNC(=O)[C@@H](N)CCCN)CC5)O[C@@H](n5ccc(N)nc5=O)C4)O[C@@H](n4cc(C)c(=O)[nH]c4=O)C3)O2)c(=O)[nH]c1=O` (some centres undefined), the MIC (Escherichia coli [1]) is reported as 10 µM (≈ 53.3 µg/mL).
Molecule `Cc1cn([C@H]2CN(P(=O)(OC[C@@H]3CN(P(=O)(OC[C@@H]4CN(P(=O)(OC[C@@H]5CN(P(=O)(OC[C@@H]6CN(P(=O)(OC[C@@H]7CN(P(=O)(OC[C@@H]8CN(P(=O)(OC[C@@H]9CN(P(=O)(OC[C@@H]%10CNC[C@H](n%11cnc%12c(=O)[nH]c(N)nc%12%11)O%10)N(C)C)C[C@H](n%10cc(C)c(=O)[nH]c%10=O)O9)N(C)C)C[C@H](n9cnc%10c(=O)[nH]c(N)nc%109)O8)N(C)C)C[C@H](n8cnc9c(N)ncnc98)O7)N(C)C)C[C@H](n7cc(C)c(=O)[nH]c7=O)O6)N(C)C)C[C@H](n6cnc7c(N)ncnc76)O5)N(C)C)C[C@H](n5cnc6c(=O)[nH]c(N)nc65)O4)N(C)C)C[C@H](n4ccc(N)nc4=O)O3)N(C)C)C[C@@H](COP(=O)(N(C)C)N3C[C@@H](COP(=O)(N(C)C)N4C[C@@H](COP(=O)(N(C)C)N5CCN(C(=O)CCNC(=O)CCCCCNC(=O)[C@H](CCCCN)NC(=O)CCCCNC(=O)[C@H](CCCCN)NC(=O)[C@H](CCCCN)NC(=O)CCCCNC(=O)[C@H](CCCCN)NC(=O)[C@H](CCCCN)NC(=O)CCCCNC(=O)[C@H](CCCCN)NC(=O)[C@H](CCCCN)NC(=O)CCCCNC(=O)[C@@H](N)CCCCN)CC5)O[C@@H](n5ccc(N)nc5=O)C4)O[C@@H](n4cc(C)c(=O)[nH]c4=O)C3)O2)c(=O)[nH]c1=O` (some centres undefined) has an MIC (Escherichia coli [1]) of 20 µM (≈ 108 µg/mL).
For `Cc1cn([C@H]2CN(P(=O)(OC[C@@H]3CN(P(=O)(OC[C@@H]4CN(P(=O)(OC[C@@H]5CN(P(=O)(OC[C@@H]6CN(P(=O)(OC[C@@H]7CN(P(=O)(OC[C@@H]8CN(P(=O)(OC[C@@H]9CN(P(=O)(OC[C@@H]%10CNC[C@H](n%11cnc%12c(=O)[nH]c(N)nc%12%11)O%10)N(C)C)C[C@H](n%10cc(C)c(=O)[nH]c%10=O)O9)N(C)C)C[C@H](n9cnc%10c(=O)[nH]c(N)nc%109)O8)N(C)C)C[C@H](n8cnc9c(N)ncnc98)O7)N(C)C)C[C@H](n7cc(C)c(=O)[nH]c7=O)O6)N(C)C)C[C@H](n6cnc7c(N)ncnc76)O5)N(C)C)C[C@H](n5cnc6c(=O)[nH]c(N)nc65)O4)N(C)C)C[C@H](n4ccc(N)nc4=O)O3)N(C)C)C[C@@H](COP(=O)(N(C)C)N3C[C@@H](COP(=O)(N(C)C)N4C[C@@H](COP(=O)(N(C)C)N5CCN(C(=O)CCNC(=O)CCCCCNC(=O)[C@@H](N)CCCNC(=O)[C@H](Cc6ccccc6)NC(=O)[C@H](Cc6ccccc6)NC(=O)[C@@H](N)CCCNC(=O)[C@H](Cc6ccccc6)NC(=O)[C@H](Cc6ccccc6)NC(=O)[C@@H](N)CCCNC(=O)[C@H](Cc6ccccc6)NC(=O)[C@H](Cc6ccccc6)NC(=O)[C@@H](N)CCCN)CC5)O[C@@H](n5ccc(N)nc5=O)C4)O[C@@H](n4cc(C)c(=O)[nH]c4=O)C3)O2)c(=O)[nH]c1=O` (some centres undefined), the MIC (Escherichia coli [1]) was over 80 µM.
`Cc1cn([C@H]2CN(P(=O)(OC[C@@H]3CN(P(=O)(OC[C@@H]4CN(P(=O)(OC[C@@H]5CN(P(=O)(OC[C@@H]6CN(P(=O)(OC[C@@H]7CN(P(=O)(OC[C@@H]8CN(P(=O)(OC[C@@H]9CN(P(=O)(OC[C@@H]%10CNC[C@H](n%11cnc%12c(=O)[nH]c(N)nc%12%11)O%10)N(C)C)C[C@H](n%10cc(C)c(=O)[nH]c%10=O)O9)N(C)C)C[C@H](n9cnc%10c(=O)[nH]c(N)nc%109)O8)N(C)C)C[C@H](n8cnc9c(N)ncnc98)O7)N(C)C)C[C@H](n7cc(C)c(=O)[nH]c7=O)O6)N(C)C)C[C@H](n6cnc7c(N)ncnc76)O5)N(C)C)C[C@H](n5cnc6c(=O)[nH]c(N)nc65)O4)N(C)C)C[C@H](n4ccc(N)nc4=O)O3)N(C)C)C[C@@H](COP(=O)(N(C)C)N3C[C@@H](COP(=O)(N(C)C)N4C[C@@H](COP(=O)(N(C)C)N5CCN(C(=O)CCNC(=O)CCCCCNC(=O)[C@H](CCCNC(=N)N)NC(=O)CCCCCNC(=O)[C@@H](N)CCCNC(=N)N)CC5)O[C@@H](n5ccc(N)nc5=O)C4)O[C@@H](n4cc(C)c(=O)[nH]c4=O)C3)O2)c(=O)[nH]c1=O` (some centres undefined) was tested, and the MIC (Escherichia coli [1]) was over 80 µM.
